Earlier results, collected in patent US20100260859A1 (ELAN PHARMA INTERNATIONAL LIMITED, priority 2009, published 2010).

CN1CCN(C2=Nc3cc(Cl)ccc3Nc3ccccc32)CC1 [Clozapine, 8-chloro-11-(4-methylpiperazin-1-yl)-5H-dibenzo[b,e][1,4]diazepine]
established intrinsic solubility of clozapine in water: 16 µg/mL
solubility in water (in words): very slightly soluble in water
